Results: ChEMBL document CHEMBL3813674 (Medchemcomm, 2016)
In brackets after ≈: the same amount, converted by molar mass.

Columns and labels:
Assay type in all cases: physicochemical
[1] = Solubility of the compound in ChCl-U solvent at 37 degC measured after 24 hrs by HPLC analysis
[2] = Solubility of the compound in ChBt-LA1 solvent at 37 degC measured after 24 hrs by HPLC analysis
[3] = Solubility of the compound in TPAB-P solvent at 37 degC measured after 24 hrs by HPLC analysis
[4] = Solubility of the compound in ChCl-G solvent at 37 degC measured after 24 hrs by HPLC analysis
[5] = Solubility of the compound in ChCl-LA1 solvent at HBA:HBD 1:5 molar ratio and 37 degC measured after 24 hrs by HPLC analysis
[6] = Solubility of the compound in EAC-EG solvent at 37 degC measured after 24 hrs by HPLC analysis
[7] = Solubility of the compound in ChCl-P solvent at HBA:HBD 1:5 molar ratio and 37 degC measured after 24 hrs by HPLC analysis
[8] = Solubility of the compound in BE-LA1 solvent at 37 degC measured after 24 hrs by HPLC analysis
[9] = Solubility of the compound in ChCl-LA1 solvent at 37 degC measured after 24 hrs by HPLC analysis
[10] = Solubility of the compound in ChCl-GA1 solvent at 37 degC measured after 24 hrs by HPLC analysis
[11] = Solubility of the compound in EAC-LA2 solvent at 37 degC measured after 24 hrs by HPLC analysis
[12] = Solubility of the compound in ChCl-LA2 solvent at 37 degC measured after 24 hrs by HPLC analysis
[13] = Solubility of the compound in ChCl-LA1 solvent at HBA:HBD 1:2 molar ratio and 37 degC measured after 24 hrs by HPLC analysis
[14] = Solubility of the compound in 1,2-propanediol at 37 degC measured after 24 hrs by HPLC analysis
[15] = Solubility of the compound in ChCl-P solvent at HBA:HBD 1:4 molar ratio and 37 degC measured after 24 hrs by HPLC analysis
[16] = Solubility of the compound in TPAB-LA1 solvent at 37 degC measured after 24 hrs by HPLC analysis
[17] = Solubility of the compound in ChCl-OA solvent at 37 degC measured after 24 hrs by HPLC analysis
[18] = Solubility of the compound in EAC-P solvent at 37 degC measured after 24 hrs by HPLC analysis
[19] = Solubility of the compound in ChCl-LA1 solvent at HBA:HBD 1:4 molar ratio and 37 degC measured after 24 hrs by HPLC analysis
[20] = Solubility of the compound in water at 37 degC measured after 24 hrs by HPLC analysis; settings: for solubility at 24 h: water
[21] = Solubility of the compound in ChCl-P solvent at HBA:HBD 1:3 molar ratio and 37 degC measured after 24 hrs by HPLC analysis
[22] = Solubility of the compound in ChCl-EG solvent at 37 degC measured after 24 hrs by HPLC analysis
[23] = Solubility of the compound in ChCl-P solvent at HBA:HBD 1:2 molar ratio and 37 degC measured after 24 hrs by HPLC analysis
[24] = Solubility of the compound in ChCl-MA1 solvent at 37 degC measured after 24 hrs by HPLC analysis
[25] = Solubility of the compound in levulinic acid at 37 degC measured after 24 hrs by HPLC analysis
[26] = Solubility of the compound in ChCl-LA1 solvent at HBA:HBD 1:3 molar ratio and 37 degC measured after 24 hrs by HPLC analysis
[27] = Solubility of the compound in ChCl-GA2 solvent at 37 degC measured after 24 hrs by HPLC analysis
[28] = Half life of the compound at optimal pH
[29] = Half life of compound in ChCl-P solvent at 2.5 mg by HPLC method
[30] = Ratio of half life of compound in ChCl-P solvent to half life of compound in water; settings: buffer
[31] = Half life of compound in water at 2.5 mg by HPLC method

## CC(=O)Nc1ccc(O)cc1 [ACETAMINOPHEN]
[1]
  solubility: 169.7 mg/mL (≈ 1120 mM)
[2]
  solubility: 89.07 mg/mL (≈ 589 mM)
[3]
  solubility: 352.7 mg/mL (≈ 2330 mM)
[4]
  solubility: 140.3 mg/mL (≈ 928 mM)
[5]
  solubility: 199.8 mg/mL
[6]
  solubility: 173.9 mg/mL (≈ 1150 mM)
[7]
  solubility: 246.2 mg/mL
[8]
  solubility: 212.1 mg/mL (≈ 1400 mM)
[9]
  solubility: 279 mg/mL (≈ 1850 mM)
[10]
  solubility: 238.1 mg/mL (≈ 1580 mM)
[11]
  solubility: 141.2 mg/mL (≈ 934 mM)
[12]
  solubility: 254 mg/mL (≈ 1680 mM)
[13]
  solubility: 279 mg/mL
[14]
  solubility: 235.1 mg/mL (≈ 1560 mM)
[15]
  solubility: 267.9 mg/mL
[16]
  solubility: 316.5 mg/mL (≈ 2090 mM)
[17]
  solubility: 186.7 mg/mL (≈ 1240 mM)
[18]
  solubility: 188.6 mg/mL (≈ 1250 mM)
[19]
  solubility: 208.4 mg/mL
[20]
  solubility at 24 h: 19.9 mg/mL (≈ 132 mM)
[21]
  solubility: 324 mg/mL
[22]
  solubility: 287 mg/mL (≈ 1900 mM)
[23]
  solubility: 324 mg/mL
[24]
  solubility: 266.3 mg/mL (≈ 1760 mM)
[25]
  solubility: 144.5 mg/mL (≈ 956 mM)
[26]
  solubility: 217.4 mg/mL
[27]
  solubility: 224.8 mg/mL (≈ 1490 mM)

## CC(=O)Oc1ccccc1C(=O)O [ASPIRIN]
[28]
  half-life: < 336 h
[1]
  solubility: 147.9 mg/mL (≈ 821 mM)
[2]
  solubility: 37.06 mg/mL (≈ 206 mM)
[3]
  solubility: 220.2 mg/mL (≈ 1220 mM)
[29]
  half-life: 17.5 h
[4]
  solubility: 42.48 mg/mL (≈ 236 mM)
[5]
  solubility: 104.4 mg/mL
[6]
  solubility: 56.84 mg/mL (≈ 315 mM)
[7]
  solubility: 168.7 mg/mL
[8]
  solubility: 149.8 mg/mL (≈ 831 mM)
[9]
  solubility: 135 mg/mL (≈ 749 mM)
[10]
  solubility: 76.28 mg/mL (≈ 423 mM)
[11]
  solubility: 44.57 mg/mL (≈ 247 mM)
[12]
  solubility: 91.3 mg/mL (≈ 507 mM)
[13]
  solubility: 135 mg/mL
[14]
  solubility: 134.3 mg/mL (≈ 745 mM)
[15]
  solubility: 179.2 mg/mL
[16]
  solubility: 163.7 mg/mL (≈ 909 mM)
[17]
  solubility: 86.32 mg/mL (≈ 479 mM)
[30]
  Ratio: 8.2
[18]
  solubility: 82.18 mg/mL (≈ 456 mM)
[19]
  solubility: 109.9 mg/mL
[20]; buffer, 24 h
  solubility: 3.3 mg/mL (≈ 18.3 mM)
[31]
  half-life: 2.13 h
[21]
  solubility: 184.6 mg/mL
[22]
  solubility: 139 mg/mL (≈ 772 mM)
[23]
  solubility: 202 mg/mL
[24]
  solubility: 126.3 mg/mL (≈ 701 mM)
[25]
  solubility: 95.63 mg/mL (≈ 531 mM)
[26]
  solubility: 113.1 mg/mL
[27]
  solubility: 67.43 mg/mL (≈ 374 mM)

## CC(C)Cc1ccc(C(C)C(=O)O)cc1 (stereo unspecified) [IBUPROFEN]
[1]
  solubility: 4.5 mg/mL (≈ 21.8 mM)
[2]
  solubility: 35.05 mg/mL (≈ 170 mM)
[3]
  solubility: 383.4 mg/mL (≈ 1860 mM)
[4]
  solubility: 3.82 mg/mL (≈ 18.5 mM)
[6]
  solubility: 21.42 mg/mL (≈ 104 mM)
[7]
  solubility: 267.6 mg/mL
[8]
  solubility: 280.2 mg/mL (≈ 1360 mM)
[9]
  solubility: 78.69 mg/mL (≈ 381 mM)
[10]
  solubility: 25.38 mg/mL (≈ 123 mM)
[11]
  solubility: 20.67 mg/mL (≈ 100 mM)
[12]
  solubility: 17.95 mg/mL (≈ 87 mM)
[14]
  solubility: 380 mg/mL (≈ 1840 mM)
[15]
  solubility: 226.1 mg/mL
[16]
  solubility: 194.8 mg/mL (≈ 944 mM)
[17]
  solubility: 31.51 mg/mL (≈ 153 mM)
[18]
  solubility: 141.6 mg/mL (≈ 686 mM)
[20]
  solubility at 24 h: 0.07 mg/mL (≈ 0.339 mM)
[21]
  solubility: 191.7 mg/mL
[22]
  solubility: 24.29 mg/mL (≈ 118 mM)
[23]
  solubility: 183.3 mg/mL
[24]
  solubility: 25.87 mg/mL (≈ 125 mM)
[25]
  solubility: 159.4 mg/mL (≈ 773 mM)
[27]
  solubility: 9.49 mg/mL (≈ 46 mM)
